The values that follow are results of earlier work, collected in patent US20160354391A1, “USE IN SINGLE PILL/TABLET/CAPSULE OF MINOCYCLINE, FLUCONAZOLE AND ATORVASTATIN IN THE TREATMENT OF MULTIPLE SCLEROSIS” (priority 2014, published 2016).

For series [1] the following is noted: in vivo.

For the molecule `C/C(O)=C(\C#N)C(=O)Nc1ccc(C(F)(F)F)cc1` [Teriflunomide], the elimination time entry in series [1] was “up to 2 years”.

As for Alemtuzumab, the “patients who develop thyroid autoimmune diseases” value is given as “approximately 40%”.
